Data taken from ChEMBL document CHEMBL3120096 (J Med Chem, 2014).
In brackets after ≈: the same amount, converted by molar mass.

Columns and labels:
[1] = target: Ribosomal protein S6 kinase alpha-3 (Homo sapiens) (UniProt P51812); assay: Inhibition of RSK2 (unknown origin) at 0.1 uM relative to control
[2] = target: Ribosomal protein S6 kinase alpha-6 (Homo sapiens) (UniProt Q9UK32); assay: Inhibition of RSK4 (unknown origin) at 0.1 uM relative to control
Cytochrome P450 3A4 = Cytochrome P450 3A4 (Homo sapiens, UniProt P08684); assay: Induction of CYP3A4 in human hepatocytes; format: ADME, cell-based, Hepatocyte
[3] = Thermodynamic solubility of the crystalline form of compound at pH 7.4; format: physicochemical; conditions: read-out: Therm_solubility
[4] = Plasma protein binding in cynomolgus monkey at 5 uM after 4 hrs by equilibrium dialysis technique; format: ADME, cell-free, Macaca fascicularis; conditions: read-out: PPB (converted)
[5] = Ratio of unbound drug level in brain to plasma in Sprague-Dawley rat; format: ADME, organism-based
[6] = target: T1, Leucine-rich repeat serine/threonine-protein kinase 2 (Homo sapiens, UniProt Q5S007); assay: Inhibition of LRRK2 (unknown origin)
[7] = Oral bioavailability in Sprague-Dawley rat at 50 mg/kg; format: ADME, organism-based; conditions: in vivo
[8] = target: T1, Leucine-rich repeat serine/threonine-protein kinase 2; assay: Inhibition of LRRK2 (unknown origin) phosphorylation by cell-based assay
Rattus norvegicus = assay: Unbound clearance in Sprague-Dawley rat at 1 mg/kg, po and 0.5 mg/kg, iv; format: ADME, organism-based; conditions: in vivo
[9] = Clearance in cynomolgus monkey at 1 mg/kg, po and 0.5 mg/kg, iv; format: ADME, organism-based, Macaca fascicularis; conditions: in vivo
[10] = Half life in cynomolgus monkey at 0.5 mg/kg, iv; format: ADME, organism-based, Macaca fascicularis; set-up: dose 0.5 mg/kg, route intravenous; conditions: in vivo
[11] = target: Ribosomal protein S6 kinase alpha-2 (Homo sapiens) (UniProt Q15349); assay: Inhibition of RSK3 (unknown origin) at 0.1 uM relative to control
[12] = target: Aurora kinase B (Homo sapiens) (UniProt Q96GD4); assay: Inhibition of aurora-B (unknown origin) at 0.1 uM relative to control
[13] = target: T2, Dual specificity protein kinase TTK (Homo sapiens, UniProt P33981); assay: Inhibition of TTK (unknown origin)
T2 sequence (P33981 whole entry): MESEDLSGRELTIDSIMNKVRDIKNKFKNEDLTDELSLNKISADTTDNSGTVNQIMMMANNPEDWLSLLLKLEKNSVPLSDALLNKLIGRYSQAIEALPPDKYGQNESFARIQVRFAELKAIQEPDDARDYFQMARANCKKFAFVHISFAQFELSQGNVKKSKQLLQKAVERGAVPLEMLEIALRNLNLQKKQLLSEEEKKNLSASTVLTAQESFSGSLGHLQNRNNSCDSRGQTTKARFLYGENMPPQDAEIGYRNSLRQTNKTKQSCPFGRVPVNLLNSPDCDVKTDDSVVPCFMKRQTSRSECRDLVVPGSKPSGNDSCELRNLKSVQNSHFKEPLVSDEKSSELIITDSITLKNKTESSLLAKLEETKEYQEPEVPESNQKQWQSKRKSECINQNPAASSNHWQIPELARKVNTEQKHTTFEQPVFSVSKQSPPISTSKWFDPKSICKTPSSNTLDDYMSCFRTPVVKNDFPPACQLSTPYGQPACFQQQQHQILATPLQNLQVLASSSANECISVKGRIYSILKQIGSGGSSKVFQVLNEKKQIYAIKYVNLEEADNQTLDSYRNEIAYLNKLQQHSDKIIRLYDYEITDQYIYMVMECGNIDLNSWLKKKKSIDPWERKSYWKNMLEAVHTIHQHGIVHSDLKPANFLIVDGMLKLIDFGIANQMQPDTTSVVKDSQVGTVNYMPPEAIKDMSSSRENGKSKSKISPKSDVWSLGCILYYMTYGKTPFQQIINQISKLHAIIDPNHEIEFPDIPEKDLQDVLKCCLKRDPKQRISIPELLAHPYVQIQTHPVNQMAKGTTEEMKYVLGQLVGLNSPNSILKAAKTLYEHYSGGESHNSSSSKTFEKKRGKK

[14] = Clearance in Sprague-Dawley rat at 1 mg/kg, po and 0.5 mg/kg, iv; format: ADME, organism-based; conditions: in vivo
Liver microsome = assay: Drug metabolism in human liver microsomes assessed as glucuronidated parent compound level after 3 hrs; format: ADME
Cynomolgus monkey = assay: Unbound clearance in cynomolgus monkey at 1 mg/kg, po and 0.5 mg/kg, iv; format: ADME, organism-based, Macaca fascicularis; conditions: in vivo
[15] = Clearance in rat hepatocytes at 1 uM by LC-MS/MS analysis; format: ADME, cell-based, Hepatocyte
[16] = Oral bioavailability in cynomolgus monkey at 1 mg/kg; format: ADME, organism-based, Macaca fascicularis; conditions: in vivo
Hepatocyte = assay: Drug metabolism in human hepatocytes assessed as glucuronidated parent compound level after 3 hrs; format: ADME, cell-based
Mus musculus = assay: In vivo inhibition of human LRRK2 G2019S Parkinson's disease mutant expressed in BAC mouse assessed as inhibition of autophosphorylation at Ser1292 in brain at 10 to 50 mg/kg, ip after 1 to 6 hrs; format: functional, organism-based; set-up: dose 10-50 mg/kg, route intraperitoneal
Cytochrome P450 1A2 [17] = target: T3, Cytochrome P450 1A2 (Homo sapiens, UniProt P05177); assay: Induction of CYP1A2 in human hepatocytes; format: ADME, cell-based, Hepatocyte
T3 sequence (P05177 whole entry): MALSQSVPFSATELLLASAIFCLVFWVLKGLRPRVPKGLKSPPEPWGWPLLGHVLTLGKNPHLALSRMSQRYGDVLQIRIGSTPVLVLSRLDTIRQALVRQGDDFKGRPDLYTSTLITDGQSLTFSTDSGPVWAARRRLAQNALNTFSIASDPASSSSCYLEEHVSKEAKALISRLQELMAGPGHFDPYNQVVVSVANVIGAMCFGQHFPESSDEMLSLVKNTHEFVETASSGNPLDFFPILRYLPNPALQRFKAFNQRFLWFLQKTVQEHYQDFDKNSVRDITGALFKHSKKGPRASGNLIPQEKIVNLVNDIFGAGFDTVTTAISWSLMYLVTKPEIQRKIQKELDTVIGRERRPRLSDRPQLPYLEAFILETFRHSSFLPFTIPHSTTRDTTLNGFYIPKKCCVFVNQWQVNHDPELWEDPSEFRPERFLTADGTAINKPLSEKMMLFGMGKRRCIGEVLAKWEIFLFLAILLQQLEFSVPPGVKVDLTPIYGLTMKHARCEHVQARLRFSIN

Cytochrome P450 1A2 [18] = target: T3, Cytochrome P450 1A2; assay: Reversible inhibition of CYP1A2 in human liver microsomes using phenacetin as substrate by mass spectrophotometric analysis; format: ADME
Cytochrome P450 2B6 = target: T4, Cytochrome P450 2B6 (Homo sapiens, UniProt P20813); assay: Induction of CYP2B6 in human hepatocytes; format: ADME, cell-based, Hepatocyte
T4 sequence (P20813 whole entry): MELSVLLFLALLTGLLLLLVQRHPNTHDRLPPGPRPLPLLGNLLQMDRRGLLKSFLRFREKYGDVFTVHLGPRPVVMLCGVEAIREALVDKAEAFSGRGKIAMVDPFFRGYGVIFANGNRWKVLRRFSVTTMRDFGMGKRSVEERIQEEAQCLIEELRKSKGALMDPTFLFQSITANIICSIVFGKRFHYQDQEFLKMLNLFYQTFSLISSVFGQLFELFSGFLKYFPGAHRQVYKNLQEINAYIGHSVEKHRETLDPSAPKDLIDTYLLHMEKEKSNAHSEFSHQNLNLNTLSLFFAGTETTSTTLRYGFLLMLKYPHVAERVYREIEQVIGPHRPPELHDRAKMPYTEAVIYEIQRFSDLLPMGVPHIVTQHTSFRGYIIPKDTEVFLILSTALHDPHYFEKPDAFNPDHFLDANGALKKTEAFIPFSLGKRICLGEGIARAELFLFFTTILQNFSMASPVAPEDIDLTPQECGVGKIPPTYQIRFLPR

[19] = Clearance in human hepatocytes at 1 uM by LC-MS/MS analysis; format: ADME, cell-based, Hepatocyte
[20] = Oral bioavailability in cynomolgus monkey at 1 to 20 mg/kg; format: ADME, organism-based, Macaca fascicularis; conditions: in vivo
Homo sapiens = species: Homo sapiens; assay: Selectivity ratio of Ki for JAK2 (unknown origin) to Ki for LRRK2 (unknown origin)

T1 sequence (Q5S007 whole entry): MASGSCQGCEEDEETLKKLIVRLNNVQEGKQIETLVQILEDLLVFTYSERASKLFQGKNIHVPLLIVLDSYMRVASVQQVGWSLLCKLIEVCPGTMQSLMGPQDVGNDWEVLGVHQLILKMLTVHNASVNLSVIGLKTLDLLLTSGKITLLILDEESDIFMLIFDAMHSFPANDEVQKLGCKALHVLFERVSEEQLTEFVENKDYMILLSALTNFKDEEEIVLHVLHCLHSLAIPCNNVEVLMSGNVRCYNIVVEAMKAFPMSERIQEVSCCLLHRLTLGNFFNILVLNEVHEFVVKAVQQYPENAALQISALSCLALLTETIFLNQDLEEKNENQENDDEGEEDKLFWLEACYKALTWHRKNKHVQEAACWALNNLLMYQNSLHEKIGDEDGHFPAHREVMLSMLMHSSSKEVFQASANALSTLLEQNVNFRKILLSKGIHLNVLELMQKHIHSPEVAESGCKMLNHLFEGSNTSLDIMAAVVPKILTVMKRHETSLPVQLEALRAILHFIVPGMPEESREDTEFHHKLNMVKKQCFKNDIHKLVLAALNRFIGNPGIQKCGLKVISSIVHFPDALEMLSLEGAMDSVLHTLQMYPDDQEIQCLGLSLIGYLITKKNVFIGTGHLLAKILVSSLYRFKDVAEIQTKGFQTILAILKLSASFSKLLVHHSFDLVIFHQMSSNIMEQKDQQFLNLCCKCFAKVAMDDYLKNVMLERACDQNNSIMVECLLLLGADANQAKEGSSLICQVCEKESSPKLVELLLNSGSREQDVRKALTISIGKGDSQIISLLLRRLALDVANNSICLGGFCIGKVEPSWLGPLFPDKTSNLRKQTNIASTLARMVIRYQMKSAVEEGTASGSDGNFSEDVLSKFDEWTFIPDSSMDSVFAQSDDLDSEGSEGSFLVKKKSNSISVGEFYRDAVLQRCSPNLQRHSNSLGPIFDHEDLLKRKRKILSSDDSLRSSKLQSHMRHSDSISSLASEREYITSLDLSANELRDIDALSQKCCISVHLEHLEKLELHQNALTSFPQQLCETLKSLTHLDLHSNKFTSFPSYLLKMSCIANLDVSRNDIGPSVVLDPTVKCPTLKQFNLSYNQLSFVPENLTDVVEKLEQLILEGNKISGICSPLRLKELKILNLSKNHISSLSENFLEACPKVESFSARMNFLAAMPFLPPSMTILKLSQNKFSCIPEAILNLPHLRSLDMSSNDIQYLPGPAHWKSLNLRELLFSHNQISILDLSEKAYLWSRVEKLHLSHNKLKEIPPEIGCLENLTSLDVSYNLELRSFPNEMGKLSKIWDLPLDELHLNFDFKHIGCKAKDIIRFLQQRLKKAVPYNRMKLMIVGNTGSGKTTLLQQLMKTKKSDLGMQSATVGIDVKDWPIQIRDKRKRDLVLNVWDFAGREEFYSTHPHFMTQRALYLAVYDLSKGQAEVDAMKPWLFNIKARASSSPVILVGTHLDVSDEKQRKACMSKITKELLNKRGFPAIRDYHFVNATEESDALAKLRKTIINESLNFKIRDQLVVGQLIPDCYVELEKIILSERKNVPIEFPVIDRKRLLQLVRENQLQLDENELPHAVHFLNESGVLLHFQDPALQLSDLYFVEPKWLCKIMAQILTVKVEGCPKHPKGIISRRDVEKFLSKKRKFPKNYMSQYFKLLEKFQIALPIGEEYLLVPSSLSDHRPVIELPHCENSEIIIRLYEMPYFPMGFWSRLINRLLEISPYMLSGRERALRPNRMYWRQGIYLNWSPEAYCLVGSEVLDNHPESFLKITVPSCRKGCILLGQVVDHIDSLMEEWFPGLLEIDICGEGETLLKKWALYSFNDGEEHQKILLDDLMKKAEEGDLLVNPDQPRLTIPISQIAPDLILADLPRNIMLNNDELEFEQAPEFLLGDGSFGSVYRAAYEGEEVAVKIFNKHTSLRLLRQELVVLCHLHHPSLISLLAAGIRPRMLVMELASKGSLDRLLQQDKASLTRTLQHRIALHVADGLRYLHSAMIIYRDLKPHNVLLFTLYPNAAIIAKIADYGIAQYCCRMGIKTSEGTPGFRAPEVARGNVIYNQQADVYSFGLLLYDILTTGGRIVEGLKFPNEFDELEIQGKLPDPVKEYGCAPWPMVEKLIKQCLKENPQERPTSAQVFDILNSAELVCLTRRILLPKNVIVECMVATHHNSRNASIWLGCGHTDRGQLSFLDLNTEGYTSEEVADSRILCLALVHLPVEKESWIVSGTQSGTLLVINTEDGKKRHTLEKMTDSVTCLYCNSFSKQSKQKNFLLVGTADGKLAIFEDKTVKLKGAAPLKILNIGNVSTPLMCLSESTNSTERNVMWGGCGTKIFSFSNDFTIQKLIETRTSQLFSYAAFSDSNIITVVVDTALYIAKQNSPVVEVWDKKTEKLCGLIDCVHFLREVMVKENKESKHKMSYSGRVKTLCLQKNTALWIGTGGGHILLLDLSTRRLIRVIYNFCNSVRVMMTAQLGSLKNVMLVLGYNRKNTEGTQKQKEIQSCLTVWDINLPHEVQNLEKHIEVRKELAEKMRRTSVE
Chain of Aurora kinase B (Homo sapiens) (Q96GD4 whole entry): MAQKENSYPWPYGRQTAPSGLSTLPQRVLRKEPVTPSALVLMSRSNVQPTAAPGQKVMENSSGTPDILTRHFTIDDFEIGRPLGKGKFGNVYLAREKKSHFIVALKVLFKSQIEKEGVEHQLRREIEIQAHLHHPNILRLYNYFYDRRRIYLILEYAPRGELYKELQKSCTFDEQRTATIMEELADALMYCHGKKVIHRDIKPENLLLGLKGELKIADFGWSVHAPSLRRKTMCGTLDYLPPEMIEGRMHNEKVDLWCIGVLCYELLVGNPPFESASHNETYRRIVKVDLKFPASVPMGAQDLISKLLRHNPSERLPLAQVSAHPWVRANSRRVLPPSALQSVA
Chain of Ribosomal protein S6 kinase alpha-6 (Homo sapiens) (Q9UK32 whole entry): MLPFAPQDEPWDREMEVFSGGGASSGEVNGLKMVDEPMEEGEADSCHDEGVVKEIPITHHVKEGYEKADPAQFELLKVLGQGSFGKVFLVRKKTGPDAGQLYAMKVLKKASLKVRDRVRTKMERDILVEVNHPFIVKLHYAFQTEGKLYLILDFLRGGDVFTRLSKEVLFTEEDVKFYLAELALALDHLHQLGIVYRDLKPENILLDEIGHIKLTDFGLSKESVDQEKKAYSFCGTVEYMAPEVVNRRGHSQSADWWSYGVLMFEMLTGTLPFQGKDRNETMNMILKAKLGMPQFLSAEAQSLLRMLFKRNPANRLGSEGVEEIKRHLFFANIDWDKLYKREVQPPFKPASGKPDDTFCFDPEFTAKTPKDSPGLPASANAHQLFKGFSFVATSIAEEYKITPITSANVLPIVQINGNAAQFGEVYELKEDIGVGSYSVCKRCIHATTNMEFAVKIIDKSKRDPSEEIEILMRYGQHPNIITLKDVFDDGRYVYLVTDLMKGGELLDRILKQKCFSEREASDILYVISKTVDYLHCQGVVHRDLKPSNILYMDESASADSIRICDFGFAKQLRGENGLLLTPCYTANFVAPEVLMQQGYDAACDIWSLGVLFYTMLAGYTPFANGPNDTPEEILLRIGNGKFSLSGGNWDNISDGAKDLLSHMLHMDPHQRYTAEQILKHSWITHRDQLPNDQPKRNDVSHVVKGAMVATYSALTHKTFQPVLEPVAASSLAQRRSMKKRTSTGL
Chain of Ribosomal protein S6 kinase alpha-2 (Homo sapiens) (Q15349 whole entry): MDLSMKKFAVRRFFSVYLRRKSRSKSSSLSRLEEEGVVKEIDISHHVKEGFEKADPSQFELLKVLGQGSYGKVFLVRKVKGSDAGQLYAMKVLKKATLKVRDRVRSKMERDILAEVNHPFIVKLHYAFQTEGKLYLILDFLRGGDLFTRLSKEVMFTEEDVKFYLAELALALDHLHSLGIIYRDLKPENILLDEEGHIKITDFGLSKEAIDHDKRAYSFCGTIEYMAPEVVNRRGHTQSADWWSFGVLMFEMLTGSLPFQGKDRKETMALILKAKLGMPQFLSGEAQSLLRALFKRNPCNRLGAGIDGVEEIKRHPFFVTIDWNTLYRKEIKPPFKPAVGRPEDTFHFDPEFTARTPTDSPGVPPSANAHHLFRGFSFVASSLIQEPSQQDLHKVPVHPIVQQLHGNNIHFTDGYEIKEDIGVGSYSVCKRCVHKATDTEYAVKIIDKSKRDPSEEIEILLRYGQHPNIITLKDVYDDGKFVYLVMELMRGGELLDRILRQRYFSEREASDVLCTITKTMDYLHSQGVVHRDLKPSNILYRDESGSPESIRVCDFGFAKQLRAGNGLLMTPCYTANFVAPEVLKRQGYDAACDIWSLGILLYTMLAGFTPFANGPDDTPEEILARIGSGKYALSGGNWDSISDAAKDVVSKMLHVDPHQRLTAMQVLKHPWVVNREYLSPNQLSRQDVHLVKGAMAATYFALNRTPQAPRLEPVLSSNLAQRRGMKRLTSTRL
Chain of Ribosomal protein S6 kinase alpha-3 (Homo sapiens) (P51812 whole entry): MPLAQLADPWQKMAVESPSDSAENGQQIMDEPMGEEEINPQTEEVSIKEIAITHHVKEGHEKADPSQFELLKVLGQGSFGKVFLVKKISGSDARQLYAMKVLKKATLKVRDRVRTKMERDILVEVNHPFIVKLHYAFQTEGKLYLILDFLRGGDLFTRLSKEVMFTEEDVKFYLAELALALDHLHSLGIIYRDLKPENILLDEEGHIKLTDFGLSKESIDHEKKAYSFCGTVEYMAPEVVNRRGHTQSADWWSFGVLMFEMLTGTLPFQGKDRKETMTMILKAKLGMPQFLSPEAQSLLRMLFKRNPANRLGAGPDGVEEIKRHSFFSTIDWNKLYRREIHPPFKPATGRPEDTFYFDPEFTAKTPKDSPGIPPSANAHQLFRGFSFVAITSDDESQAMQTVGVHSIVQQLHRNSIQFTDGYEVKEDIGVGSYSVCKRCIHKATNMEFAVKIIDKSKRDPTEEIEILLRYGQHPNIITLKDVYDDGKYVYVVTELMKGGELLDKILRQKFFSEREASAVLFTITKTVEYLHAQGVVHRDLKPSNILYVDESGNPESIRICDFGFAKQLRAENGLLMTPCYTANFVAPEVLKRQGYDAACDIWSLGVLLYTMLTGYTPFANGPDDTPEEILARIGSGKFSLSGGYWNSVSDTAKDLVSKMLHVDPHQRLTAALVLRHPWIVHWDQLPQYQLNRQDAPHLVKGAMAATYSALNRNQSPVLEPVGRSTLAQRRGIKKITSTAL

CNc1nc(Nc2cn(C(C)(C)C#N)nc2C)ncc1C(F)(F)F [DNL-201]
inhibition [1]: 52% | inhibition [2]: 62% | Activity (Cytochrome P450 3A4): Active | solubility thermodynamic [3]: 100 µg/mL (≈ 295 µM) | fraction unbound at 4 h, 5 µM [4]: 0.197 | Kp uu [5]: 0.6 | Ki [6]: 0.7 nM | bioavailability [7]: 88% | IC50 [8]: 3 nM | CL free (Rattus norvegicus): 210 mL/min/kg | clearance [9]: 19.7 mL/min/kg | half-life [10]: 132 min | inhibition [11]: 68% | inhibition [12]: 51% | Ki [13]: 150 nM | clearance [14]: 44 mL/min/kg | Drug metabolism (Liver microsome): Not Active | CL free (Cynomolgus monkey): 100 mL/min/kg | CLhep predicted at 1 µM [15]: 25 mL/min/kg | bioavailability [16]: 35% | Drug metabolism (Hepatocyte): Not Active | IC50 (Mus musculus): 3 nM | inhibition (Mus musculus): Dose-dependent effect | Activity (Cytochrome P450 1A2 [17]): Active | IC50 (Cytochrome P450 1A2 [18]): 700 nM | Activity (Cytochrome P450 2B6): Active | CLhep predicted at 1 µM [19]: 3 mL/min/kg

CNc1nc(Nc2cnn(CC(C)(C)O)c2Cl)ncc1C(F)(F)F
bioavailability [20]: 5% | Ratio Ki (Homo sapiens): > 150
